In ChEMBL document CHEMBL1125999 (Bioorg Med Chem Lett, 1991) one finds IC50 and pKa data, which are given here for seven compounds.

One data set concerns the target D(1A) dopamine receptor (Bos taurus, UniProt Q95136). Description: In vitro binding affinity towards Dopamine D1 receptor using [3H]-SCH- 23390 as radioligand.
For another data set, the target named is D(2) dopamine receptor (Bos taurus, UniProt P20288). Description: In vitro binding affinity towards Dopamine D2 receptor using [3H]spiperone as radioligand.
Data set [1] can be described thus: Dissociation constant was evaluated. The data set is classed as physicochemical.

Sequence of D(2) dopamine receptor (P20288 whole entry): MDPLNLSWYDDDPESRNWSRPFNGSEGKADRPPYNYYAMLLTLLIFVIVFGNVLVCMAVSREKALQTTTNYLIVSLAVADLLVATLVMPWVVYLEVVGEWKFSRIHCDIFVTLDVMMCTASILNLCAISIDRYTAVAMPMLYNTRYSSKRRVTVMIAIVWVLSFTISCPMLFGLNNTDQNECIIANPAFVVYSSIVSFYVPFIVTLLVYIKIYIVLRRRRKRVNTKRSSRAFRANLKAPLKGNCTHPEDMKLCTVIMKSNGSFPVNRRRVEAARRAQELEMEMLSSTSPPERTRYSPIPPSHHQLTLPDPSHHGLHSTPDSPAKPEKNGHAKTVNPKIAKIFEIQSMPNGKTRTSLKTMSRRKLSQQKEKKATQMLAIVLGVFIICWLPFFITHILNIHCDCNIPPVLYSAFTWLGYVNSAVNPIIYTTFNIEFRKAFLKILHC
Sequence of D(1A) dopamine receptor (Q95136 whole entry): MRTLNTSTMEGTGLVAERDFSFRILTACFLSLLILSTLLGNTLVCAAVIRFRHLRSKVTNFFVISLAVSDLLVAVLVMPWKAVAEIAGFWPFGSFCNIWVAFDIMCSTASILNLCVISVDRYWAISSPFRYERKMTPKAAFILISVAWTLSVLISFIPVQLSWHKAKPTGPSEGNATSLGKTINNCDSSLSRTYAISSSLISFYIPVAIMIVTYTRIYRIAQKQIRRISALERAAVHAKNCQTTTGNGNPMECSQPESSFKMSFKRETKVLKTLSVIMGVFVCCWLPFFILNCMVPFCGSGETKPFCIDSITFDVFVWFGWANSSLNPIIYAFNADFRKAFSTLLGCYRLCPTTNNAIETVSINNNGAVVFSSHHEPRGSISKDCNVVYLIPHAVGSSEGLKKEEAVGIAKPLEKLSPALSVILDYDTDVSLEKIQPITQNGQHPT

In the case of `CCCN(CCC)CCc1ccc(NC(C)=O)c(NC(C)=O)c1`, the IC50 on D(1A) dopamine receptor and on D(2) dopamine receptor was over 100 µM each time.

`NCCc1ccc(O)c(O)c1` [DOPAMINE] came in with an IC50 at D(1A) dopamine receptor of 0.2 µM.

`CCCN(CCC)CCc1ccc2[nH]c(=O)c(=O)[nH]c2c1`: the IC50 is over 100 µM on D(1A) dopamine receptor and 3 µM on D(2) dopamine receptor. In data set [1], the pKa was 9.5.

As for `CCCN(CCC)CCc1ccc2nn[nH]c2c1`, the figures for the IC50 on D(1A) dopamine receptor and on D(2) dopamine receptor were over 100 µM and 50 µM, respectively.

`CCCN(CCC)CCc1ccc2[nH]c(O)nc2c1`: the IC50 on D(1A) dopamine receptor and at D(2) dopamine receptor was over 100 µM each time.

As for `CCCN(CCC)CCc1ccc(NC(=O)C(F)(F)F)c(NC(=O)C(F)(F)F)c1`, the IC50 on D(1A) dopamine receptor and on D(2) dopamine receptor was over 100 µM each time.

For the compound `CCCN(CCC)CCc1ccc2[nH]c(S)nc2c1`, the IC50 was over 100 µM at D(1A) dopamine receptor and 1 µM on D(2) dopamine receptor. For the same compound, the pKa in data set [1] is 9.8.
